# Measured values taken from ChEMBL document CHEMBL1681708, “The synthesis and structure-activity relationship of pyridazinones as glucan synthase inhibitors” (Bioorg Med Chem Lett, 2011).
# Assays:
# Nakaseomyces glabratus = experiment: Antifungal activity against Candida glabrata C624 by broth dilution method; type: functional; conditions: read-out: MIC100
# Candida albicans = experiment: Antifungal activity against Candida albicans C693 by broth dilution method; type: functional; conditions: for MIC: read-out: MIC100
# Beta-1,3-glucan synthase = target: T1, Beta-1,3-glucan synthase (Candida albicans, UniProt O13383); experiment: Inhibition of Candida albicans BWP17 1,3-beta-D-glucan synthase
# T1 sequence (O13383 whole entry): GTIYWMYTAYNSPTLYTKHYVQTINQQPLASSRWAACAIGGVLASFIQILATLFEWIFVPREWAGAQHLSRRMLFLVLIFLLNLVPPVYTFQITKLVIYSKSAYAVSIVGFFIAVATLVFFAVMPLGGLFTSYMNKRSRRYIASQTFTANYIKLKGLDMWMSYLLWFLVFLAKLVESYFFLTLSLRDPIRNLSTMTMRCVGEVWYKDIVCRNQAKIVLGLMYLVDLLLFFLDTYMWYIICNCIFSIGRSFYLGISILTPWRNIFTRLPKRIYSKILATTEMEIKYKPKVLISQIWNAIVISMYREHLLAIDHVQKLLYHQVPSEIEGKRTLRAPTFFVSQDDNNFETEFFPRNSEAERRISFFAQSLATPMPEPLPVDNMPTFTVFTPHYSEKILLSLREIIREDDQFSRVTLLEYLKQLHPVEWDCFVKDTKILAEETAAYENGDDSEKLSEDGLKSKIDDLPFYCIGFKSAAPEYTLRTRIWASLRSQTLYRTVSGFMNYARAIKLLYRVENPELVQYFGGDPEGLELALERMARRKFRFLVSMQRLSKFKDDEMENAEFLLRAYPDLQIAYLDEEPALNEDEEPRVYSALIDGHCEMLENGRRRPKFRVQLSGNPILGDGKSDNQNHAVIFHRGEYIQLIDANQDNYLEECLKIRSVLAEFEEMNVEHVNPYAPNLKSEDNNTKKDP
# [1] = AUC (0 to 6 hrs) in rat at 10 mg/kg, po administered with methylcellulose; type: ADME, organism-based; design: time < 6 hr, dose 10 mg/kg, route oral; conditions: in vivo
# Aspergillus fumigatus = experiment: Antifungal activity against Aspergillus fumigatus ND158 by broth dilution method; type: functional; conditions: read-out: MEC
SMILES,MIC (Nakaseomyces glabratus),MIC (Candida albicans),"IC50 (Beta-1,3-glucan synthase)",AUC(0-t) at 6 h [1],minimal effective concentration (Aspergillus fumigatus),MIC50 (Candida albicans)
O=c1c(N2CCOCC2)c(N2CCN(S(=O)(=O)Cc3ccccc3)CC2)cnn1-c1ccccc1,0.39 µg/mL,> 50 µg/mL,9280 nM,–,–,–
CCOCCOc1c(N2CCN(S(=O)(=O)Cc3ccccc3)CC2)cnn(-c2ccccc2)c1=O,0.1 µg/mL,3.1 µg/mL,1810 nM,–,–,–
CC(C)S(=O)(=O)N1CCN(c2cnn(C3CCCCC3)c(=O)c2OC2CCCC2)CC1,0.78 µg/mL,> 50 µg/mL,19400 nM,–,–,–
CC(C)S(=O)(=O)N1CCN(c2cnn(-c3cc(Cl)cc(Cl)c3)c(=O)c2OC2CCCC2)CC1,0.2 µg/mL,3.1 µg/mL,504 nM,–,–,–
CCCCCCCOc1c(N2CCN(S(=O)(=O)Cc3ccccc3)CC2)cnn(-c2ccccc2)c1=O,< 0.1 µg/mL,0.78 µg/mL,229 nM,–,–,–
CCCCCCCS(=O)(=O)c1c(N2CCN(S(=O)(=O)Cc3ccccc3)CC2)cnn(-c2ccccc2)c1=O,1.6 µg/mL,> 50 µg/mL,> 17500 nM,–,–,–
CC(C)S(=O)(=O)N1CCN(c2cnn(-c3cc(F)cc(F)c3)c(=O)c2OC2CCC(F)(F)C2)CC1 (configuration not stated),0.05 µg/mL,12.5 µg/mL,1160 nM,440 ng·h/mL,3.1 µg/mL,–
CCCCCCCc1c(N2CCN(S(=O)(=O)Cc3ccccc3)CC2)cnn(-c2ccccc2)c1=O,0.78 µg/mL,> 50 µg/mL,2950 nM,–,–,–
CC(C)S(=O)(=O)N1CCN(c2cnn(-c3cccc(F)c3)c(=O)c2OC2CCC(F)C2)CC1 (racemic),0.13 µg/mL,16.7 µg/mL,870 nM,300 ng·h/mL,4.2 µg/mL,–
O=c1c(OC2CCCC2)c(N2CCN(S(=O)(=O)Cc3ccccc3)CC2)cnn1-c1ccccc1,0.03 µg/mL,0.26 µg/mL,364 nM,–,–,–
CC(C)S(=O)(=O)N1CCN(c2cnn(-c3cc(F)cc(F)c3)c(=O)c2OC2CCCC2)CC1,0.4 µg/mL,6.3 µg/mL,1280 nM,–,–,–
CCCCCCC[S+]([O-])c1c(N2CCN(S(=O)(=O)Cc3ccccc3)CC2)cnn(-c2ccccc2)c1=O (configuration not stated),0.59 µg/mL,25 µg/mL,5390 nM,–,–,–
C[C@H]1CN(c2cnn(-c3ccccc3)c(=O)c2OC2CCCCC2)CCN1S(=O)(=O)Cc1ccccc1,0.39 µg/mL,–,8230 nM,–,–,2 µg/mL
CC(C)S(=O)(=O)N1CCN(c2cnn(-c3cccc(F)c3)c(=O)c2OC2CCCC2)CC1,0.1 µg/mL,6.3 µg/mL,2150 nM,670 ng·h/mL,1.6 µg/mL,–
CC(C)S(=O)(=O)N1CCN(c2cnn(-c3cccc(N)c3)c(=O)c2OC2CCCC2)CC1,25 µg/mL,> 50 µg/mL,4120 nM,–,–,–
O=c1c(OC2CCCC2)c(N2CCN(S(=O)(=O)Cc3ccccn3)CC2)cnn1-c1ccccc1,0.06 µg/mL,8.4 µg/mL,1190 nM,–,–,–
CS(=O)(=O)N1CCN(c2cnn(-c3ccccc3)c(=O)c2OC2CCCC2)CC1,0.63 µg/mL,> 20 µg/mL,5260 nM,–,–,–
